What was measured:
ORYSAT (Rice, Tebonnet) = experiment: Preemergence herbicidal evaluation; assay type: in vivo, Oryza sativa, (L.) Tebonnet; conditions: rated 4-5 weeks after treatment
How it was run: (§1)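 Test compound, dissolved in aqueous acetone, was sprayed over planted soil cups at an equivalent of about 0.0156 to 0.500 kg/ha; seeds had been mixed with potting soil. Greenhouse growth followed, with visual 0-9 scoring of injury at four to five weeks.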

[1] = test system: ECHORC (Watergrass (Calif.)); experiment: Postemergence weed control under flooded paddy conditions; assay type: in vivo, Echinochloa oryzoides; conditions: postemergence weeds, rated 3 to 4 weeks after treatment
How it was run: (§2)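 Herbicidal effect is judged by eye on a 0–9 scale versus control, 3–4 weeks after dosing. Dosing is into flood water kept 1.5–3 cm over the soil, at about 0.0313–0.500 kg/ha in aqueous/acetone 50/50 v/v, on 3–5 cm weeds and 1.5–2.5-leaf rice seedlings.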

ZEAMX (Corn, Field) [2] = experiment: Postemergence herbicidal evaluation; assay type: in vivo, Zea mays; conditions: postemergence
How it was run: (§3)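 Compound is applied as a foliar spray to seedlings about two weeks old, formulated in equal parts acetone and water with 0.5% TWEEN 20 and delivered at 40 psi to give about 0.0156–0.500 kg per hectare. Injury is rated visually 0–9 after four to five weeks.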

[3] = test system: CHEAL (Lambsquarters, Common); experiment: Preemergence herbicidal evaluation; assay type: in vivo, Chenopodium album; conditions: rated 4-5 weeks after treatment
How it was run: as §1

CASOB (Sicklepod) = experiment: Postemergence herbicidal evaluation; assay type: in vivo, Cassia obtusifolia; conditions: postemergence
How it was run: as §3

[4] = test system: ECHORC (Watergrass (Calif.)); experiment: Preemergence weed control under flooded paddy conditions; assay type: in vivo, Echinochloa oryzoides; conditions: rated 3-4 weeks after treatment
How it was run: (§4)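 Ratings on a 0-9 visual scale cover stand, vigor, malformation, size, chlorosis and overall appearance relative to a control, taken three to four weeks post-treatment. Application was into flood water over freshly sown silt loam at roughly 0.0313 to 0.500 kg/ha.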

GALAP (Galium) = experiment: Postemergence herbicidal evaluation; assay type: in vivo, Galium aparine; conditions: postemergence
How it was run: as §3

ZEAMX (Corn, Field) [5] = experiment: Preemergence herbicidal evaluation; assay type: in vivo, Zea mays; conditions: rated 4-5 weeks after treatment
How it was run: as §1

AMBEL (Ragweed, Common) = experiment: Preemergence herbicidal evaluation; assay type: in vivo, Ambrosia artemisifolia; conditions: rated 4-5 weeks after treatment
How it was run: as §1

[6] = test system: TRZAWR (Wheat, Winter, cv Riband); experiment: Preemergence herbicidal evaluation; assay type: in vivo, Triticum aestivum; conditions: rated 4-5 weeks after treatment
How it was run: as §1

CYPSE (Flatsedge) [7] = experiment: Preemergence weed control under flooded paddy conditions; assay type: in vivo, Cyperus serotinus; conditions: rated 3-4 weeks after treatment
How it was run: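 Seeds or propagules sown in silt loam kept flooded 1.5-3 cm; compounds in 50/50 acetone/water pipetted into flood water at about 0.0313 to 0.500 kg/ha. Greenhouse; visual 0-9 rating versus untreated control 3-4 weeks after treatment.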

[8] = test system: IPOHE (Morningglory, Ivyleaf); experiment: Preemergence herbicidal evaluation; assay type: in vivo, Ipomoea hederacea; conditions: rated 4-5 weeks after treatment
How it was run: as §1

CYPIR (Rice Flatsedge) = experiment: Preemergence weed control under flooded paddy conditions; assay type: in vivo, Cyperus iria; conditions: rated 3-4 weeks after treatment
How it was run: as §4

CYPSE (Flatsedge) [9] = experiment: Postemergence weed control under flooded paddy conditions; assay type: in vivo, Cyperus serotinus; conditions: postemergence weeds, rated 3 to 4 weeks after treatment
How it was run: as §2

Compound: CCOC(=O)[C@H](C)N1C(=O)CSC1=Nc1cc(-n2c(=O)cc(C(F)(F)F)n(C)c2=O)c(F)cc1Cl [Compound 76, Ethyl 2-{{2-chloro-5-[3,6-dihydro-3-methyl-2,6-dioxo-4-(trifluoromethyl)-1(2H)-pyrimidinyl]-4-fluorophenyl}imino}-α-methyl-4-oxo-3-thiazolidineacetate, L-]
- Preemergence herbicidal rating ORYSAT (ORYSAT (Rice, Tebonnet); rate 0.0156 kg/ha): 0.0
- Preemergence herbicidal rating ORYSAT (ORYSAT (Rice, Tebonnet); rate 0.0313 kg/ha): 0.0
- Preemergence herbicidal rating ORYSAT (ORYSAT (Rice, Tebonnet); rate 0.0625 kg/ha): 3.0
- Preemergence herbicidal rating ORYSAT (ORYSAT (Rice, Tebonnet); rate 0.1250 kg/ha): 4.0
- Preemergence herbicidal rating ORYSAT (ORYSAT (Rice, Tebonnet); rate 0.2500 kg/ha): 5.0
- Herbicidal rating ECHORC ([1]; Rate 0.0313 kg/ha): 4.0
- Herbicidal rating ECHORC ([1]; Rate 0.0625 kg/ha): 7.0
- Herbicidal rating ECHORC ([1]; Rate 0.1250 kg/ha): 9.0
- Herbicidal rating ECHORC ([1]; Rate 0.2500 kg/ha): 9.0
- ZEAMX herbicidal rating (ZEAMX (Corn, Field) [2]; rate 0.0158 kg/ha): 4.5
- ZEAMX herbicidal rating (ZEAMX (Corn, Field) [2]; rate 0.0315 kg/ha): 6.0
- ZEAMX herbicidal rating (ZEAMX (Corn, Field) [2]; rate 0.0630 kg/ha): 7.0
- Preemergence herbicidal rating CHEAL ([3]; rate 0.0156 kg/ha): 9.0
- Preemergence herbicidal rating CHEAL ([3]; rate 0.0313 kg/ha): 9.0
- Preemergence herbicidal rating CHEAL ([3]; rate 0.0625 kg/ha): 9.0
- Preemergence herbicidal rating CHEAL ([3]; rate 0.1250 kg/ha): 9.0
- Preemergence herbicidal rating CHEAL ([3]; rate 0.2500 kg/ha): 9.0
- CASOB herbicidal rating (CASOB (Sicklepod); rate 0.0158 kg/ha): 1.0
- CASOB herbicidal rating (CASOB (Sicklepod); rate 0.0315 kg/ha): 4.0
- CASOB herbicidal rating (CASOB (Sicklepod); rate 0.0630 kg/ha): 5.0
- ECHORC herbicidal effect rating ([4]; 0.0313 kg/ha): 4.0
- ECHORC herbicidal effect rating ([4]; 0.0625 kg/ha): 7.0
- ECHORC herbicidal effect rating ([4]; 0.1250 kg/ha): 9.0
- ECHORC herbicidal effect rating ([4]; 0.2500 kg/ha): 9.0
- GALAP herbicidal rating (GALAP (Galium); rate 0.0158 kg/ha): 1.0
- GALAP herbicidal rating (GALAP (Galium); rate 0.0315 kg/ha): 6.0
- GALAP herbicidal rating (GALAP (Galium); rate 0.0630 kg/ha): 7.0
- Preemergence herbicidal rating ZEAMX (ZEAMX (Corn, Field) [5]; rate 0.0156 kg/ha): 0.0
- Preemergence herbicidal rating ZEAMX (ZEAMX (Corn, Field) [5]; rate 0.0313 kg/ha): 1.0
- Preemergence herbicidal rating ZEAMX (ZEAMX (Corn, Field) [5]; rate 0.0625 kg/ha): 5.0
- Preemergence herbicidal rating ZEAMX (ZEAMX (Corn, Field) [5]; rate 0.1250 kg/ha): 7.0
- Preemergence herbicidal rating ZEAMX (ZEAMX (Corn, Field) [5]; rate 0.2500 kg/ha): 7.0
- Preemergence herbicidal rating AMBEL (AMBEL (Ragweed, Common); rate 0.0156 kg/ha): 0.0
- Preemergence herbicidal rating AMBEL (AMBEL (Ragweed, Common); rate 0.0313 kg/ha): 0.0
- Preemergence herbicidal rating AMBEL (AMBEL (Ragweed, Common); rate 0.0625 kg/ha): 7.0
- Preemergence herbicidal rating AMBEL (AMBEL (Ragweed, Common); rate 0.1250 kg/ha): 9.0
- Preemergence herbicidal rating AMBEL (AMBEL (Ragweed, Common); rate 0.2500 kg/ha): 9.0
- Preemergence herbicidal rating TRZAWR ([6]; rate 0.0156 kg/ha): 0.0
- Preemergence herbicidal rating TRZAWR ([6]; rate 0.0313 kg/ha): 0.0
- Preemergence herbicidal rating TRZAWR ([6]; rate 0.0625 kg/ha): 3.0
- Preemergence herbicidal rating TRZAWR ([6]; rate 0.1250 kg/ha): 7.0
- Preemergence herbicidal rating TRZAWR ([6]; rate 0.2500 kg/ha): 9.0
- CYPSE herbicidal effect rating (CYPSE (Flatsedge) [7]; 0.0313 kg/ha): 2.0
- CYPSE herbicidal effect rating (CYPSE (Flatsedge) [7]; 0.0625 kg/ha): 2.0
- CYPSE herbicidal effect rating (CYPSE (Flatsedge) [7]; 0.1250 kg/ha): 2.0
- CYPSE herbicidal effect rating (CYPSE (Flatsedge) [7]; 0.2500 kg/ha): 3.0
- Preemergence herbicidal rating IPOHE ([8]; rate 0.0156 kg/ha): 0.0
- Preemergence herbicidal rating IPOHE ([8]; rate 0.0313 kg/ha): 0.0
- Preemergence herbicidal rating IPOHE ([8]; rate 0.0625 kg/ha): 0.0
- Preemergence herbicidal rating IPOHE ([8]; rate 0.1250 kg/ha): 9.0
- Preemergence herbicidal rating IPOHE ([8]; rate 0.2500 kg/ha): 9.0
- CYPIR herbicidal effect rating (CYPIR (Rice Flatsedge); 0.0313 kg/ha): 0.0
- CYPIR herbicidal effect rating (CYPIR (Rice Flatsedge); 0.0625 kg/ha): 0.0
- CYPIR herbicidal effect rating (CYPIR (Rice Flatsedge); 0.1250 kg/ha): 0.0
- CYPIR herbicidal effect rating (CYPIR (Rice Flatsedge); 0.2500 kg/ha): 6.0
- Herbicidal rating CYPSE (CYPSE (Flatsedge) [9]; Rate 0.0313 kg/ha): 2.0
- Herbicidal rating CYPSE (CYPSE (Flatsedge) [9]; Rate 0.0625 kg/ha): 2.0
- Herbicidal rating CYPSE (CYPSE (Flatsedge) [9]; Rate 0.1250 kg/ha): 2.0
- Herbicidal rating CYPSE (CYPSE (Flatsedge) [9]; Rate 0.2500 kg/ha): 3.0

— US20020137929A1, “1 - (3-heterocyclylphenyl) isothiourea, -isourea, -guanidine and -amidine herbicidal agents” (Intellectual Property Department, BASF Aktiengesellschaft, priority 1998, published 2002)
